One series relates to PC3. The experiment in a line: LDH cytotoxicity assay, prostate carcinoma PC3. The settings on record: Homo sapiens. Format: cell-based. From the text:
(§1) Human cancer and the corresponding normal cell lines, used in the study, were grouped as follows: skin panel (melanoma HTB140, derived from metastatic site: lymph node, ATCC Hs 294T; malignant melanoma A375, ATCC CRL-1619; stage I primary melanoma WM793, RRID:CVCL 8787; skin keratinocytes HaCaT), prostate panel (prostate carcinoma Du145, derived from metastatic site: brain, ATCC HTB-81; grade IV prostate carcinoma, PC3, derived from metastatic site: bone, ATCC CRL-1435; prostate epithelial cells PNT2, ECACC 95012613), gastrointestinal panel (colorectal adenocarcinomas Caco2, ATCC HTB-37, and HT29, ATCC HTB-38; hepatocellular carcinoma HepG2, ATCC HB-8065), thyroid panel (follicular thyroid carcinoma FTC133, ECACC 94060901; undifferentiated thyroid carcinoma 8505C, ECACC 94090184; Nthy-ori 3–1, human thyroid follicular epithelial cells, ECACC 90011609), lung carcinoma A549 cells (ATCC CRM-CCL-185). Cells were grown at standard conditions (37 °C, 5% CO2, relative humidity) and culture media (DMEM/F12 for PNT2, WM 793, HT29, PC3, FTC133, 8505C, A549; DMEM Low Glucose for DU145; DMEM High Glucose for HTB140, A375, HaCaT; MEM with NEAA for Caco2), supplemented with 10% fetal bovine serum (FBS) and 1% antibiotics solution (10 000 U penicillin and 10 mg streptomycin/mL). All culture media and supplements were from Sigma-Aldrich.
(§2) Cell viability was measured with the lactate dehydrogenase (LDH) assay (Clontech, Mountain View, CA, USA), as described previously. Before the experiment, cells were seeded onto 96-well plates for 24 h (1.5 × 10^4 cells/well). The culture medium was replaced with a fresh medium containing different concentrations of the tested extracts (10–100 μg/mL, in DMSO) and incubated for 24 and 48 h. The absorbance was measured at 490 nm using a Biotek Synergy microplate reader. Cell viability was expressed as percent of the dead cells and IC50 values were also calculated. Each experiment was done in triplicate.
(§3) Data were analyzed using Statistica v. 13.3 (Stat Soft, TIBCO, Palo Alto, CA, USA). Each variable was expressed as mean (± SD). The statistical significance in cytotoxic assay was determined using Mann–Whitney U test. The value p < 0.05 was considered to indicate significant differences. NMR Spectra were analyzed using ACD/Labs ^1D NMR Processor 12.0 (Academic Edition) and JEOL DELTA v 5.3.1 (Jeol Resonance Inc., JEOL, Tokyo, Japan). In MS analysis MassLynx V 4.1 (Waters, Milford, MA, USA) and Compass DataAnalysis (Bruker, Billerica, MA, USA) software were used. IC50 values in cytotoxic assay were calculated using Origin Pro 2020b (OriginLab Corporation, Northampton, MA, USA).

Another series relates to HepG2. In words: LDH cytotoxicity assay, hepatocellular carcinoma HepG2. The class given is cell-based. The settings on record: Homo sapiens.
Text: as §1, §2, §3

For a further series, the system named is Caco-2. In words: LDH cytotoxicity assay, colorectal adenocarcinoma Caco-2. The note with it: Homo sapiens. The class given is cell-based.
Text: as §1, §2, §3

A further series concerns WM793. In words: LDH cytotoxicity assay, primary melanoma WM793. The settings on record: Homo sapiens. The class given is cell-based.
Text: as §1, §2, §3

In the next series the test system is FTC133. In words: LDH cytotoxicity assay, follicular thyroid carcinoma FTC133. The settings on record: Homo sapiens. Format: cell-based.
Text: as §1, §2, §3

The subject of the next series is Nthy-ori 3–1. In words: LDH cytotoxicity assay, thyroid follicular epithelial cells Nthy-ori 3–1. Format: cell-based. The note with it: Homo sapiens.
Text: as §1, §2, §3

Another series has as its system A375. In words: LDH cytotoxicity assay, malignant melanoma A375. Format: cell-based. The settings on record: Homo sapiens.
Text: as §1, §2, §3

The test system of another series is HTB-140. The experiment in a line: LDH cytotoxicity assay, melanoma HTB-140. Format: cell-based. The note with it: Homo sapiens.
Text: as §1, §2, §3

The test system of another series is A549. The experiment in a line: LDH cytotoxicity assay, lung carcinoma A549. Format: cell-based. The settings on record: Homo sapiens.
Text: as §1, §2, §3

A further series relates to PNT2. In words: LDH cytotoxicity assay, normal prostate epithelial PNT2. The class given is cell-based. The settings on record: Homo sapiens.
Text: as §1, §2, §3

A further series has as its system 8505C. In words: LDH cytotoxicity assay, undifferentiated thyroid carcinoma 8505C. Format: cell-based. The note with it: Homo sapiens.
Text: as §1, §2, §3

The test system of the next series is DU-145. The experiment in a line: LDH cytotoxicity assay, prostate carcinoma DU-145. The class given is cell-based. The settings on record: Homo sapiens.
Text: as §1, §2, §3

The subject of the next series is HaCaT. In words: LDH cytotoxicity assay, skin keratinocytes HaCaT. The settings on record: Homo sapiens. Format: cell-based.
Text: as §1, §2, §3

Another series has as its system HT29. The experiment in a line: LDH cytotoxicity assay, colorectal adenocarcinoma HT29. The class given is cell-based. The settings on record: Homo sapiens.
Text: as §1, §2, §3

The next series relates to HeLa cells. Also on record: method as in doi:10.1007/s11101-009-9121-0. The settings on record: cited from earlier work.

Some results are limits rather than exact numbers.

By IC50 is commonly meant the concentration that inhibits the measured activity by half. On to `COC(=O)[C@@]1(C)CC[C@]2(C(=O)O[C@@H]3O[C@H](CO)[C@@H](O)[C@H](O)[C@H]3O)CC[C@]3(C)C(=CC[C@@H]4[C@@]5(C)CC[C@H](O[C@@H]6OC[C@H](O)[C@H](O)[C@H]6O[C@@H]6O[C@@H](C)[C@H](O)[C@@H](O)[C@H]6O)C(C)(C)[C@@H]5CC[C@]43C)[C@@H]2C1` [Compound 1, 3-O-α-L-Rhamnopyranosyl-(1→2)-α-L-Arabinopyranosyl Serjanic Acid 28-O-β-D-Glucopyranosyl Ester], for which the IC50 is 34.3 µg/mL with PC3 (PC-3, PC3, 24 h); 19.5 µg/mL with PC3 (PC-3, PC3, 48 h); over 100 µg/mL in the series on HepG2 (HepG2, 24 h); 76.6 µg/mL with HepG2 (HepG2, 48 h); 28.7 µg/mL in the series on Caco-2 (Caco-2, 24 h); 15.3 µg/mL in the series on Caco-2 (Caco-2, 48 h). Moreover, the IC50 in the series with WM793 (WM793, 24 h) was 17.2 µg/mL; with WM793 (WM793, 48 h) it was 9.92 µg/mL; with FTC133 (FTC-133, FTC133, 24 h), over 100 µg/mL; with FTC133 (FTC-133, FTC133, 48 h), 76.3 µg/mL; in the series with Nthy-ori 3–1 (Nthy-ori 3–1, 24 h), over 100 µg/mL; in the series on Nthy-ori 3–1 (Nthy-ori 3–1, 48 h) it was over 100 µg/mL. Moreover, the IC50 in the series on A375 (A-375, A375, 24 h) was determined as 32.4 µg/mL; with A375 (A-375, A375, 48 h) it was 20.3 µg/mL; in the series with HTB-140 (HTB-140, 24 h), 11.7 µg/mL; in the series on HTB-140 (HTB-140, 48 h) it was 7.95 µg/mL; with A549 (A549, 24 h) it was 61.3 µg/mL; in the series with A549 (A549, 48 h), 34.7 µg/mL. The IC50 with PNT2 (PNT2, 24 h) was over 100 µg/mL; in the series with PNT2 (PNT2, 48 h), over 100 µg/mL; in the series on 8505C (24 h), over 100 µg/mL; with 8505C (48 h) it was over 100 µg/mL; in the series with DU-145 (DU-145, 24 h), 16.6 µg/mL; with DU-145 (DU-145, 48 h), 7.25 µg/mL. In addition, the IC50 was over 100 µg/mL in the series with HaCaT (24 h); over 100 µg/mL in the series with HaCaT (48 h); 57.9 µg/mL with HT29 (HT-29, HT29, 24 h); 22.8 µg/mL in the series on HT29 (HT-29, HT29, 48 h).
Consider `COC(=O)[C@@]1(C)CC[C@]2(C(=O)O[C@@H]3O[C@H](CO)[C@@H](O)[C@H](O)[C@H]3O)CC[C@]3(C)C(=CC[C@@H]4[C@@]5(C)CC[C@H](O[C@@H]6OC[C@H](O)[C@H](O)[C@H]6O)C(C)(C)[C@@H]5CC[C@]43C)[C@@H]2C1` [Compound 2, 3-O-α-L-Arabinopyranosyl Serjanic Acid 28-O-β-D-Glucopyranosyl Ester], for which the IC50 in the series with PC3 (PC-3, PC3, 24 h) came to 23.8 µg/mL; in the series on PC3 (PC-3, PC3, 48 h), 18.3 µg/mL; in the series on HepG2 (HepG2, 24 h) it was 54.2 µg/mL; in the series with HepG2 (HepG2, 48 h), 39 µg/mL; in the series with Caco-2 (Caco-2, 24 h) it was 20.7 µg/mL; in the series on Caco-2 (Caco-2, 48 h), 12.6 µg/mL. Besides, the IC50 in the series on WM793 (WM793, 24 h) was 32.2 µg/mL; in the series with WM793 (WM793, 48 h), 16.8 µg/mL; with FTC133 (FTC-133, FTC133, 24 h) it was over 100 µg/mL; in the series on FTC133 (FTC-133, FTC133, 48 h), over 100 µg/mL; with Nthy-ori 3–1 (Nthy-ori 3–1, 24 h), over 100 µg/mL; with Nthy-ori 3–1 (Nthy-ori 3–1, 48 h) it was over 100 µg/mL. In addition, the IC50 in the series on A375 (A-375, A375, 24 h) was 39.4 µg/mL; in the series on A375 (A-375, A375, 48 h), 29.3 µg/mL; with HTB-140 (HTB-140, 24 h), 39.2 µg/mL; in the series with HTB-140 (HTB-140, 48 h) it was 25.1 µg/mL; in the series with A549 (A549, 24 h), 41.7 µg/mL; in the series on A549 (A549, 48 h), 28.3 µg/mL. Moreover, the IC50 with PNT2 (PNT2, 24 h) is over 100 µg/mL; in the series on PNT2 (PNT2, 48 h), over 100 µg/mL; in the series on 8505C (24 h), over 100 µg/mL; in the series with 8505C (48 h), over 100 µg/mL; with DU-145 (DU-145, 24 h), 33.1 µg/mL; in the series on DU-145 (DU-145, 48 h) it was 23.5 µg/mL. Moreover, the IC50 was over 100 µg/mL with HaCaT (24 h); over 100 µg/mL in the series on HaCaT (48 h); 10.7 µg/mL with HT29 (HT-29, HT29, 24 h); 6.48 µg/mL in the series on HT29 (HT-29, HT29, 48 h). For the same molecule, in the series on HeLa cells, the “cytotoxicity towards HeLa cells” value was “inactive”.
Regarding `COc1cccc2c1C(=O)c1c(O)c3c(c(O)c1C2=O)C[C@@](O)(C(=O)CO)C[C@@H]3O[C@H]1C[C@H](N)[C@H](O)[C@H](C)O1` [Doxorubicin, reference compound], the IC50 with PC3 (PC-3, PC3, 24 h) was over 50 µg/mL; in the series with HepG2 (HepG2, 24 h), 1.03 µg/mL; with Caco-2 (Caco-2, 24 h), 3.44 µg/mL; in the series on WM793 (WM793, 24 h) it was over 40 µg/mL; in the series on FTC133 (FTC-133, FTC133, 24 h), 4.02 µg/mL; in the series with A375 (A-375, A375, 24 h) it was 0.59 µg/mL. Moreover, the IC50 with HTB-140 (HTB-140, 24 h) was 5.71 µg/mL; with A549 (A549, 24 h), 1.73 µg/mL; with PNT2 (PNT2, 24 h), 1.38 µg/mL; in the series with 8505C (24 h) it was over 40 µg/mL; in the series on DU-145 (DU-145, 24 h), 3.18 µg/mL; with HaCaT (24 h) it was 4.68 µg/mL. In addition, the IC50 in the series on HT29 (HT-29, HT29, 24 h) amounted to 1.53 µg/mL.

Values taken from PMC8401257, “Serjanic Acid Glycosides from Chenopodium hybridum L. with Good Cytotoxicity and Selectivity Profile against Several Panels of Human Cancer Cell Lines” (Molecules, 2021).
